Assay results reported in patent publication US20230339900A1, “CASEIN KINASE 1 DELTA MODULATORS” (Janssen Pharmaceutica NV, priority 2020, published 2023).

Tests used:
[1] = molecular target: human CSNK1D tagged with nanoluciferase (Homo sapiens (Human), UniProt P48730); test: Whole Cell nBRET CSNK1D Binding Assay; details: living CHO cells stably expressing human CSNK1D-nanoluciferase; NanoBret tracer 130 nM; 2 hours 37° C.; read-out: CSNK1D BRET IC50
Protocol: This cellular binding assay uses a bioluminescence resonance energy transfer to measure human CSNK1D binding activity in living Chinese Hamster Ovary (CHO) cells that are stably expressing human CSNK1D tagged with nanoluciferase. The cells were grown to confluency in growth media (DMEM:F12, 50 u/mLPen/Strep, […] glutamine, and 0.6 mg/mL G418) in 10 cm^2 dishes. Cells were seeded onto white, opaque 384-well plates (Corning, cat #3704) at a density of 8,000 cells/well in serum-free OptiMEM and left to incubated overnight at 37° C., […]. The next day, test compounds were added in a dose response to the plate followed by a NanoBret tracer (130 nM). The plate is mixed on an orbital shaker for 30 seconds, then placed in a 37° C. incubator for 2 hours. NanoBret Nano-Glo Substrate solution (20 μL) is added to all wells and incubated for 3 minutes at room temperature. Donor (450 nm) and acceptor (630 nm) emissions are then measured within 10 minutes using a ClarioStar plate reader. The data is used to calculate millibret units, defined as (E630/E450)*1000. Bret emissions are then graphed against the log of compound concentrations and these graphs are used to determine the IC50 of each compound.

[2] = molecular target: human recombinant GST cleaved CSNK1D (Homo sapiens (Human), UniProt P48730); test: Purified enzyme assay (ADP-Glo Kinase Assay); assay type: biochemical; details: 2 nM CSNK1D, peptide substrate 150 μM, ATP 20 μM, 45 minutes room temperature
Protocol: In this assay, CSNK1D phosphorylates a substrate peptide PLSRTL-pS-VASLPGL in the presence of ATP. […] This assay monitors CSNK1D kinase activity by measuring the amount of ADP produced in the assay. A substrate mix is prepared by diluting peptide substrate (final concentration 150 μM) with ATP (final concentration 20 μM) in assay buffer (50 mM Tris/HCl pH 7.4+10 mM MgCl2+1 mM DTT+0.1% BSA). The substrate mix is added to each well of a low volume, 384-well, white opaque plate. Test compounds were diluted in HBSS and added in a dose-response to the plate. To start the reaction, 2 nM of constitutively active human recombinant GST cleaved CSNK1D (University of Dundee, clone DU 19064, stored at 0.28 mg/mL in 50 mM Tris/HCl pH 7.5, 150 mM NaCl, 270 mM Sucrose, 0.1 mM EGTA, 0.1% 2-mercaptoethanol, 0.02% Brij-35.1 mM benzamidine, 0.2 mM PMSF) was added to each well and the plate centrifuged for 5 minutes at 1500 rpm. The total volume of each reaction is 5 ul (2 μL of substrate mix, 1 μL of diluted compounds, and 2 μL of human recombinant CSNK1D). The plates are incubated for 45 minutes at room temperature.
ADP was quantified using the ADP-Glo™ Kinase Assay. ADP-Glo Reagent (5 μL) was added to each well. After a 1 hour incubation at room temperature, Kinase Detection Reagent (10 μL) was added to each well and incubated for 30 minutes. Luminescence was measured on the Perkin Elmer Wallac EnVision 2104 Multi-label Reader. The raw data from the Envision is used to calculate percent activity.

Sequence of human CSNK1D tagged with nanoluciferase (P48730 whole entry): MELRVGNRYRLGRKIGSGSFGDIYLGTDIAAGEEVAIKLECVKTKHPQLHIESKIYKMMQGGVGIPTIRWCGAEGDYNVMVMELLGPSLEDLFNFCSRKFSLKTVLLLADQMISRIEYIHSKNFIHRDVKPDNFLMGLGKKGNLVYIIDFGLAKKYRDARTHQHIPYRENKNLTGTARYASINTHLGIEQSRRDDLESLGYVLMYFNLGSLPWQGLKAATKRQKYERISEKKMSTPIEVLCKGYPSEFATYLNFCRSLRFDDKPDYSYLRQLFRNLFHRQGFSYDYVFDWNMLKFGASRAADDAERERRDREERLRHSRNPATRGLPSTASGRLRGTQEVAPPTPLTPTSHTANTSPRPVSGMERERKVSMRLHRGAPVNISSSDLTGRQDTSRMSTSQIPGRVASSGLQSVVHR
Sequence of human recombinant GST cleaved CSNK1D (P48730 whole entry): as above

IC50 [1] [nM]	AC50 [2] [nM]	Compound
2090	58	Cc1cc(-c2cn(C)nc2-c2ccc(Cl)cn2)c2cn[nH]c2n1 [Example 26, 4-(3-(5-Chloropyridin-2-yl)-1-methyl-1H-pyrazol-4-yl)-6-methyl-1H-pyrazolo[3,4-b]pyridine]
181	7	Cn1cc(-c2ccnc3[nH]ccc23)c(-c2ccsn2)n1 [Example 15, 3-(1-Methyl-4-(1H-pyrrolo[2,3-b]pyridin-4-yl)-1H-pyrazol-3-yl)isothiazole]
564	39	Cn1cc(-c2ccnc3cc(F)ccc23)c(-c2ccc(F)cn2)n1 [Example 106, 7-Fluoro-4-[3-(5-fluoro-2-pyridyl)-1-methyl-pyrazol-4-yl]quinoline]
> 10000	1540	Cc1cc(-c2nn(C)cc2-c2cc(C)nc3[nH]ncc23)cnn1 [Example 143, 6-Methyl-4-[1-methyl-3-(6-methylpyridazin-4-yl)pyrazol-4-yl]-1H-pyrazolo[3,4-b]pyridine]
197	12	Cc1cc(-c2cn(C)nc2-c2ccc(F)cn2)c2c(C)n[nH]c2n1 [Example 100, 4-[3-(5-Fluoro-2-pyridyl)-1-methyl-pyrazol-4-yl]-3,6-dimethyl-1H-pyrazolo[3,4-b]pyridine]
962	46	Cn1cc(-c2ccnc3ccc(F)nc23)c(-c2ccc(F)cn2)n1 [Example 127, 2-Fluoro-8-[3-(5-fluoro-2-pyridyl)-1-methyl-pyrazol-4-yl]-1,5-naphthyridine]
8940	128	Cc1ccc(-c2nn(C)cc2-c2ccnc3[nH]ncc23)nc1 [Example 32, 4-(1-Methyl-3-(5-methylpyridin-2-yl)-1H-pyrazol-4-yl)-1H-pyrazolo[3,4-b]pyridine]
205	5	CCn1cc(-c2ccnc3[nH]ncc23)c(-c2ccc(F)cn2)n1 [Example 56, 4-(1-Ethyl-3-(5-fluoropyridin-2-yl)-1H-pyrazol-4-yl)-1H-pyrazolo[3,4-b]pyridine]
1460	84	Cc1cc2c(-c3cn(C)nc3-c3ccc(F)cn3)ccnc2[nH]1 [Example 81, 4-(3-(5-Fluoropyridin-2-yl)-1-methyl-1H-pyrazol-4-yl)-2-methyl-1H-pyrrolo[2,3-b]pyridine]
3660	123	Cn1cc(-c2ccnc3[nH]cc(C4COC4)c23)c(-c2ccc(F)cn2)n1 [Example 93, 4-[3-(5-Fluoro-2-pyridyl)-1-methyl-pyrazol-4-yl]-3-(oxetan-3-yl)-1H-pyrrolo[2,3-b]pyridine]
> 10000	144	Cn1cc(-c2ccnc3c2CCNC3)c(-c2ccc(F)cn2)n1 [Example 113, 4-[3-(5-Fluoro-2-pyridyl)-1-methyl-pyrazol-4-yl]-5,6,7,8-tetrahydro-1,7-naphthyridine]
4620	26	Cn1cc(-c2ccnc3cccnc23)c(-c2ccc(F)cn2)n1 [Example 126, 4-[3-(5-Fluoro-2-pyridyl)-1-methyl-pyrazol-4-yl]-1,5-naphthyridine]
103	11	CCOc1ccc2nccc(-c3cn(C)nc3-c3ccc(F)cn3)c2n1 [Example 128, 2-Ethoxy-8-[3-(5-fluoro-2-pyridyl)-1-methyl-pyrazol-4-yl]-1,5-naphthyridine]
7160	75	Cn1cc(-c2c(CC#N)cnc3[nH]ccc23)c(-c2ccc(F)cn2)n1 [Example 90, 2-[4-[3-(5-Fluoro-2-pyridyl)-1-methyl-pyrazol-4-yl]-1H-pyrrolo[2,3-b]pyridin-5-yl]acetonitrile]
50	4	Cn1cc(-c2c(F)cnc3[nH]ccc23)c(-c2ccc(F)cn2)n1 [Example 78, 5-Fluoro-4-[3-(5-fluoro-2-pyridyl)-1-methyl-pyrazol-4-yl]-1H-pyrrolo[2,3-b]pyridine]
1770	26	Cn1cc(-c2ccnc3[nH]ccc23)c(-c2ccncc2F)n1 [Example 18, 4-[3-(3-Fluoro-4-pyridyl)-1-methyl-pyrazol-4-yl]-1H-pyrrolo[2,3-b]pyridine]
> 10000	1040	Cc1cc(-c2cn(C)nc2-c2ccncc2C)c2cn[nH]c2n1 [Example 136, 6-Methyl-4-[1-methyl-3-(3-methyl-4-pyridyl)pyrazol-4-yl]-1H-pyrazolo[3,4-b]pyridine]
71	3	Cn1cc(-c2c(C#N)cnc3[nH]ccc23)c(-c2ccc(F)cn2)n1 [Example 89, 4-[3-(5-Fluoro-2-pyridyl)-1-methyl-pyrazol-4-yl]-1H-pyrrolo[2,3-b]pyridine-5-carbonitrile]
955	37	Cn1cc(-c2ccnc3c2CCC3)c(-c2ccc(F)cn2)n1 [Example 2, 4-(3-(5-Fluoropyridin-2-yl)-1-methyl-1H-pyrazol-4-yl)-6,7-dihydro-5H-cyclopenta[b]pyridine]
653	19	Cn1cc(-c2c(C3COC3)cnc3[nH]ccc23)c(-c2ccc(F)cn2)n1 [Example 91, 4-(3-(5-Fluoropyridin-2-yl)-1-methyl-1H-pyrazol-4-yl)-5-(oxetan-3-yl)-1H-pyrrolo[2,3-b]pyridine]
78	15	Cn1cc(-c2ccnc3[nH]ccc23)c(-c2ncc(F)cc2F)n1 [Example 37, 4-[3-(3,5-Difluoro-2-pyridyl)-1-methyl-pyrazol-4-yl]-1H-pyrrolo[2,3-b]pyridine]
> 10000	746	Cn1cc(-c2ccnc3[nH]ccc23)c(-c2cncnc2)n1 [Example 45, 4-(1-Methyl-3-pyrimidin-5-yl-pyrazol-4-yl)-1H-pyrrolo[2,3-b]pyridine]
76	3	Cn1cc(-c2ccnc(NC(=O)C3CC3)c2)c(-c2ccc(F)cn2)n1 [Example 116, N-(4-(3-(5-Fluoropyridin-2-yl)-1-methyl-1H-pyrazol-4-yl)pyridin-2-yl)cyclopropanecarboxamide]
506	18	Cc1cc(-c2cn(C)nc2-c2cncc(Cl)c2)c2cn[nH]c2n1 [Example 139, 4-[3-(5-Chloro-3-pyridyl)-1-methyl-pyrazol-4-yl]-6-methyl-1H-pyrazolo[3,4-b]pyridine]
678	50	Cn1cc(-c2ccnc3[nH]ccc23)c(-c2ccns2)n1 [Example 12, 5-(1-Methyl-4-(1H-pyrrolo[2,3-b]pyridin-4-yl)-1H-pyrazol-3-yl)isothiazole]
491	28	COc1cc2c(-c3cn(C)nc3-c3ccc(F)cn3)ccnc2cc1F [Example 111, 7-Fluoro-4-[3-(5-fluoro-2-pyridyl)-1-methyl-pyrazol-4-yl]-6-methoxy-quinoline]
388	24	Cc1cccc(-c2nn(C)cc2-c2cc(C)nc3[nH]ncc23)n1 [Example 30, 6-Methyl-4-(1-methyl-3-(6-methylpyridin-2-yl)-1H-pyrazol-4-yl)-1H-pyrazolo[3,4-b]pyridine]
184	–	Cn1cc(-c2ccnc3[nH]c(C4COC4)cc23)c(-c2ccc(F)cn2)n1 [Example 92, 4-(3-(5-Fluoropyridin-2-yl)-1-methyl-1H-pyrazol-4-yl)-2-(oxetan-3-yl)-1H-pyrrolo[2,3-b]pyridine]
